These results are taken from patent US5258383A, “DC-89 derivatives” (priority 1991, dated 1993).

The test system of one series is melanoma B-16. Conditions: against melanoma B-16; cited from earlier work.
In a further series the test system is various bacteria. The settings on record: against various bacteria / a variety of bacteria; cited from earlier work.
The test system of a further series is Sarcoma 180 tumor. The series can be described thus: Therapeutic Effect against Sarcoma 180 Tumor. Conditions: intravenous, single administration one day after implantation, determined seven days after implantation. The series is classed as in vivo, male ddY-strain mice. The method, then: Five male ddY-strain mice each weighing 18 to 20 g were used for each group as test animals, and 5×10^5 Sarcoma 180 tumor cells were implanted subcutaneously into the animals at the axilla. One day after the implantation, 0.2 ml of physiological saline containing Compound (I) at the concentration indicated in Table 2 was intravenously administered to each mouse. T/C [T: average tumor volume (mm^3) of the group treated with the test compound, C: average tumor volume (mm^3) of the control group which received an intravenous administration of 0.2 ml of physiological saline]was determined seven days after the implant

The subject of a further series is ddY-strain male mice. Description: Acute Toxicity Test. The series is classed as in vivo. The settings on record: intravenous; mortality observed for 14 days. Here is the method:
A test compound was intravenously administered to ddY-strain male mice each weighing 20±1 g. MLD (the minimum lethal dose) was determined by observing the mortality for 14 days after the administration.

The test system of a further series is HeLaS3 cells. Description: Growth Inhibitory Effect against HeLaS3 Cells. In kind it is cell-based. The settings on record: Homo sapiens, HeLa S3; 72 hours, Neutral Red staining. Here is the method: HeLaS3 cells were suspended in a medium comprising MEM medium, 10% fetal calf serum and 2 mM glutamine (hereinafter referred to as medium A) to a concentration of 3×10^4 cells/ml. The cell suspension thus prepared was put into wells of a 96-well microtiter plate in an amount of 0.1 ml per well. After incubation at 37° C. for 20 hours in a CO2 incubator, Compound (I) appropriately diluted with medium A was added to each well in an amount of 0.05 ml.
The cells were further cultured at 37° C. for 72 hours in the CO2 -incubator and the culture supernatant was removed. After the residue was washed once with phosphate buffer saline (PBS), a medium comprising medium A and 0.02% Neutral Red was added in an amount of 0.1 ml per well. Then, the cells were cultured at 37° C. for one hour in the CO2 -incubator, whereby the cells were stained. After removal of the culture supernatant, the residue was washed once with physiological saline. The pigment was extracted with 0.001N hydrochloric acid/30% ethanol and the absorbance of the extract was measured at 550 nm using a microplate reader. The concentration of the test compound at which the growth of the cells is inhibited by 50% (IC50) was calculated by comparing the absorbance of untreated cells with those of the cells treated with the test compound at known concentrations.

For `COC(=O)C1(C)Nc2c(O)cc3c(c2C1=O)C(CCl)CN3C(=O)c1cc2cc(OC)c(OC)c(OC)c2[nH]1` (stereo not shown) [DC-89A2], the antitumor activity result with melanoma B-16 is “show an antitumor activity against melanoma B-16”. Further, in the series with various bacteria, the antibacterial activity result was “exhibit an antibacterial activity against various bacteria”.
For the molecule `COC(=O)c1c(C)[nH]c2c(OC(=O)N3CCC(N4CCCCC4)CC3)cc3c(c12)C(CBr)CN3C(=O)/C=C/c1ccc(OC)cc1` (stereo not shown) [Compound 9], in the series with Sarcoma 180 tumor (4.0 mg/kg), the “T/C (average tumor volume treated / control)” value is given as 0.17. In the series on ddY-strain male mice, the “Acute Toxicity (MLD), minimum lethal dose” value (“Acute Toxicity (MLD)” below) came out at 4.0 mg/kg.
For orientation: IC50 means the concentration needed to halve the response being measured. Read a low IC50 as greater potency in that assay. On to `COC(=O)c1c(C)[nH]c2c(OC(=O)N(C)C)cc3c(c12)C(CBr)CN3C(=O)/C=C/c1ccc(OC)cc1` (stereo not shown) [Compound 3], for which the IC50 in the series on HeLaS3 cells was found to be 11 nM. Moreover, the “T/C (average tumor volume treated / control)” value in the series on Sarcoma 180 tumor (8.0 mg/kg) came out at 0.027. The “Acute Toxicity (MLD)” value with ddY-strain male mice is listed as > 8.0 mg/kg.
As to `COC(=O)c1c(C)[nH]c2c(OC(=O)N3CCCCC3)cc3c(c12)C(CBr)CN3C(=O)/C=C/c1ccc(OC)cc1` (stereo not shown) [Compound 4], in the series on HeLaS3 cells, the IC50 was < 0.24 nM. Further, in the series on ddY-strain male mice, the “Acute Toxicity (MLD)” value is reported as > 8.0 mg/kg.
With `COC(=O)c1c(C)[nH]c2c(OC(=O)N3CCN(C)CC3)cc3c(c12)C(CBr)CN3C(=O)/C=C/c1ccc(OC)cc1` (stereo not shown) [Compound 7], the “T/C (average tumor volume treated / control)” value in the series on Sarcoma 180 tumor (4.0 mg/kg) turned out to be 0.20. In addition, the “Acute Toxicity (MLD)” value with ddY-strain male mice is listed as 8.0 mg/kg.
In the case of `COC(=O)C1(C)Nc2c(O)cc3c(c2C1=O)C(CBr)CN3C(=O)c1cc2cc(OC)c(OC)c(OC)c2[nH]1` (stereo not shown) [DC-89B2], the antitumor activity entry with melanoma B-16 is on record as “show an antitumor activity against melanoma B-16”. The antibacterial activity result in the series with various bacteria is “exhibit an antibacterial activity against various bacteria”.
Turning to `COC(=O)C1(C)Nc2c(O)cc3c(c2C1=O)CC(Br)CN3C(=O)c1cc2cc(OC)c(OC)c(OC)c2[nH]1` (stereo not shown) [DC-89B1], the antitumor activity result in the series on melanoma B-16 is given as “show an antitumor activity against melanoma B-16”. Also, in the series on various bacteria, the antibacterial activity entry is given as “exhibit an antibacterial activity against various bacteria”.
As for `COC(=O)c1cc2c([nH]1)C(=O)C=C1N(C(=O)c3cc4cc(OC)c(OC)c(OC)c4[nH]3)CC3CC123` (stereo not shown) [DC113], the antitumor activity entry in the series with melanoma B-16 is on record as “exhibit an anti-tumor activity against melanoma B-16”. Moreover, the antibacterial activity result in the series with various bacteria is listed as “show an antibacterial activity against a variety of bacteria”.
Consider `COC(=O)C1(C)NC2=C(C1=O)C13CC1CN(C(=O)c1cc4cc(OC)c(OC)c(OC)c4[nH]1)C3=CC2=O` (stereo not shown) [DC-88A], for which, in the series with melanoma B-16, the antitumor activity result is reported as “exhibit an anti-tumor activity against melanoma B-16”. For the same molecule, in the series on various bacteria, the antibacterial activity result is “show an antibacterial activity against a variety of bacteria”.
Turning to `COC(=O)C1(C)Nc2c(O)cc3c(c2C1=O)CC(Cl)CN3C(=O)c1cc2cc(OC)c(OC)c(OC)c2[nH]1` (stereo not shown) [DC-89Al], the antitumor activity entry with melanoma B-16 is recorded as “show an antitumor activity against melanoma B-16”. Further, the antibacterial activity entry in the series with various bacteria is recorded as “exhibit an antibacterial activity against various bacteria”.
In turn, `COC(=O)c1c(C)[nH]c2c1C13CC1CN(C(=O)/C=C/c1ccc(OC)cc1)C3=CC2=O` (stereo not shown) [Compound 2] had an IC50 in the series on HeLaS3 cells of 0.18 nM. Further, the “Acute Toxicity (MLD)” value in the series with ddY-strain male mice is reported as 2.0 mg/kg.
As for `COC(=O)c1c(C)[nH]c2c(OC(=O)Nc3ccccc3)cc3c(c12)C(CBr)CN3C(=O)/C=C/c1ccc(OC)cc1` (stereo not shown) [Compound 12], the “T/C (average tumor volume treated / control)” value in the series on Sarcoma 180 tumor (2.0 mg/kg) is on record as 0.25. Besides, the “Acute Toxicity (MLD)” value in the series with ddY-strain male mice worked out at 2.0 mg/kg.
Turning to `COC(=O)c1c(C)[nH]c2c(OC(=O)N3CCN(CC(=O)NC(C)C)CC3)cc3c(c12)C(CBr)CN3C(=O)/C=C/c1ccc(OC)cc1` (stereo not shown) [Compound 11], in the series with Sarcoma 180 tumor (8.0 mg/kg), the “T/C (average tumor volume treated / control)” value was found to be 0.12. The “Acute Toxicity (MLD)” value in the series on ddY-strain male mice is on record as > 8.0 mg/kg.
Regarding `COC(=O)c1c(C)[nH]c2c(OC(=O)N3CCCC3)cc3c(c12)C(CBr)CN3C(=O)/C=C/c1ccc(OC)cc1` (stereo not shown) [Compound 5], the “Acute Toxicity (MLD)” value in the series with ddY-strain male mice was > 8.0 mg/kg.
